Source: patent publication US7157487B2, “Vla-4 inhibitors” (Daiichi Pharmaceutical Co., Ltd., priority 2000, dated 2007)

Target: T1, integrins haα4 and β1 (VLA-4) expressed on CHO cells (Homo sapiens, UniProt P05556+P13612)
T1 construct: expressed in transfected cells; host or cells: CHO cells
Assay: In vitro Evaluation Test (1): binding of Eu3+-hVCAM-1 D1D7-IgG to CHO cells expressing integrins α4 and β1
Conditions: inhibition of Eu3+-hVCAM-1 D1D7-IgG binding to CHO cells expressing α4β1; Ki calculated from IC50
Procedure: CHO cells forcedly expressed by the transduction of integrins haα4 and β1 were seeded in a Coster 3599 plate (3×10^4 cells/100 μl/well) and they were cultured for 2 days. After the medium was washed with buffer A* twice, 50 μl/well of Eu^3+-hVCAM-1 D1D7-IgG diluted to […] with an assay buffer ** was added. To the resulting well was added 50 μl/well of a test compound diluted with 2% DMS0-assay buffer (in the presence or absence of 6% human serum albumin) (to a well subjected to Scatchard analysis was added a solution diluted in another manner). After stirring for 5 minutes on a plate mixer, the plate was allowed to stand at room temperature for 1 hour. Then, the plate was washed four times with the buffer A and added with 100 μl/well of an enhancement reagent (DELFIA). The plate was shaken for 5 minutes on a plate mixer, followed by measurement of fluorescence intensity by a time-resolved fluorometer (DELFIA Wallac). From the binding ratio available by the following calculation formula: ((FT−FNS)−(FI−FNS))/(FT−FNS)×100, the IC50 (concentration inhibiting 50% of binding of CHO cells with hVCAM-1 D1D7-IgG) of the test compound was determined. In the above formula, FT means the fluorescence intensity of the well free of the test compound, FNS means the fluorescence intensity of the well free of the test compound and anti-hα4 antibody (SG/73), and FI means the fluorescence intensity of the well containing the test compound. The Kd indicating the binding strength and Bmax (maximum binding) were estimated within a range of 0.06 to 20 nM in accordance with the Scatchard analysis method.
The value Ki was calculated based on:
[formula] ((L) means a ligand concentration). (* buffer A: 25 mM HEPES (pH 7.5), 150 mM NaCl, 1 mM Ca^2+, 1 MM Mg^2+, 4 mM Mn^2+; ** assay buffer: 25 mM HEPES (pH 7.5), 150 mM NaCl, 1 mM Ca^2+, 1 mM Mg^2+, 4 mM Mn^2+, 0.1% BSA, 20 μM DTPA, with/without 6% ALBUMIN, HUMAN SERUM (C/N A-1653, SIGMA)) In vitro Evaluation Test (2)

T1 sequence (P13612 34-1032): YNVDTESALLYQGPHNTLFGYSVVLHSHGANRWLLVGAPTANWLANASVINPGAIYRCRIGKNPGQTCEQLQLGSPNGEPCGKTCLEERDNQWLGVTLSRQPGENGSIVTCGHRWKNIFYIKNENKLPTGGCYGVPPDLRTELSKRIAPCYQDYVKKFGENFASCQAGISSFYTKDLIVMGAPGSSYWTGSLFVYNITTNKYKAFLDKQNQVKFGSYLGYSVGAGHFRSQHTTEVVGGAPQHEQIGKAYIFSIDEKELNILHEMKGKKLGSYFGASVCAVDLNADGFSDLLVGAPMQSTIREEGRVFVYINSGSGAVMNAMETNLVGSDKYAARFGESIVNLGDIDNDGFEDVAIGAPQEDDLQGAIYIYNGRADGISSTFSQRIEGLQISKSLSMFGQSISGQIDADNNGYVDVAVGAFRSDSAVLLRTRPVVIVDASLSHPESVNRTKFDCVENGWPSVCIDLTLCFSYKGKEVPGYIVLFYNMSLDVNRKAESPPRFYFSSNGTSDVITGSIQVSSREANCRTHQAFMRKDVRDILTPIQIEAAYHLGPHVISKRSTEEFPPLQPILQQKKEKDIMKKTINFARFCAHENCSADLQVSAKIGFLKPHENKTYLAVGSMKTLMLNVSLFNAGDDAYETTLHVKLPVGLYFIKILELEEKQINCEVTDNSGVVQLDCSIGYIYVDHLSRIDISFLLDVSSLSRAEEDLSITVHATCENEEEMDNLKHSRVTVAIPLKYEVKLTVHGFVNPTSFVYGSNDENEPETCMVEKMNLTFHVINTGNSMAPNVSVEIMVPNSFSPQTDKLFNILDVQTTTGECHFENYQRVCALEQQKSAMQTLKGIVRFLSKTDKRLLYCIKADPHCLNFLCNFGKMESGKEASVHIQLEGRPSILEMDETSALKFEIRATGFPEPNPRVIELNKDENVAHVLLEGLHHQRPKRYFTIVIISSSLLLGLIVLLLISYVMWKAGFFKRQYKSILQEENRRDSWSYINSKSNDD
T1 sequence (P05556 21-798): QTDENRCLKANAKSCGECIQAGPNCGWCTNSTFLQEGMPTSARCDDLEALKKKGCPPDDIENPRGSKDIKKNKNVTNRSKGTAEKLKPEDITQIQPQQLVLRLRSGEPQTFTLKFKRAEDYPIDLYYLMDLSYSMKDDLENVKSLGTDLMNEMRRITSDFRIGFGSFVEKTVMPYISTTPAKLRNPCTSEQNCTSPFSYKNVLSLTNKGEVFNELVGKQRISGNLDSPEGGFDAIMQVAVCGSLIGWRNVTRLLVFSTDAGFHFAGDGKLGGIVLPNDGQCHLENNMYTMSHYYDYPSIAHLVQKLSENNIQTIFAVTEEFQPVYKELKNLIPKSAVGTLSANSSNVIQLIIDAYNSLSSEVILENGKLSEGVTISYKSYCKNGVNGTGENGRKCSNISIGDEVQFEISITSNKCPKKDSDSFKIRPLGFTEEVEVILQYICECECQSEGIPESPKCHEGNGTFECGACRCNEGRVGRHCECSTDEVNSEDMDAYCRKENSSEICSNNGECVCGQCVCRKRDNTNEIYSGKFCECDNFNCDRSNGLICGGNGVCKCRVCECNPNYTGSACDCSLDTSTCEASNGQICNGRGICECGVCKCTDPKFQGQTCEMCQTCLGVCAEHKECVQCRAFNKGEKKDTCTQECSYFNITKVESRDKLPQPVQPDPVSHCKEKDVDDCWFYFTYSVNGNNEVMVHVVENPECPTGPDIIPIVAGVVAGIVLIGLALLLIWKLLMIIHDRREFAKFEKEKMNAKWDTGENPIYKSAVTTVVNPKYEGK

SMILES | Ki
O=C(Cc1ccc(Nc2nc3ccc(F)cc3s2)c(Cl)c1)N1C[C@@H](F)C[C@H]1CO[C@H]1CC[C@H](C(=O)O)CC1 [Example 57, trans-4-(1-(3-Chloro-4-(6-fluoro-2-benzothiazolyl)aminophenylacetyl)-(4S)-fluoro-(2S)-pyrrolidinylmethoxy)cyclohexanecarboxylic acid] | 7.3 nM
O=C(Cc1ccc(Nc2nc3ccc(Cl)cc3s2)c(Cl)c1)N1C[C@@H](F)C[C@H]1CO[C@H]1CC[C@H](C(=O)O)CC1 [Example 59, trans-4-(1-(4-(6-Chloro-2-benzothiazolyl)amino-3-chlorophenylacetyl)-(4S)-fluoro-(2S)-pyrrolidinylmethoxy)cyclohexanecarboxylic acid] | 7.2 nM
O=C(Cc1ccc(Nc2nc3c(Cl)cccc3s2)c(Cl)c1)N1C[C@@H](F)C[C@H]1CO[C@H]1CC[C@H](C(=O)O)CC1 [Example 60, trans-4-(1-(4-(4-Chloro-2-benzothiazolyl)amino-3-chlorophenylacetyl)-(4S)-fluoro-(2S)-pyrrolidinylmethoxy)cyclohexanecarboxylic acid] | 6.3 nM
O=C(Nc1ccc(CC(=O)N2C[C@@H](F)C[C@H]2CO[C@H]2CC[C@H](C(=O)O)CC2)cc1Br)c1c[nH]c2ccccc12 [Example 64, trans-4-(1-((3-Bromo-4-((3-indolylcarbonyl)amino)phenyl)acetyl)-(4S)-fluoro-(2S)-pyrrolidinylmethoxy)cyclohexanecarboxylic acid] | 0.31 nM
Cn1cc(C(=O)Nc2ccc(CC(=O)N3C[C@@H](F)C[C@H]3CO[C@H]3CC[C@H](C(=O)O)CC3)nc2Cl)c2ccccc21 [Example 69, trans-4-(1-(2-Chloro-3-((1-methyl-3-indolylcarbonyl)amino)-6-pyridyl)acetyl)-(4S)-fluoro-(2S)-cyclohexanecarboxylic acid] | 34 nM
Cn1cc(C(=O)Nc2cc(F)c(CC(=O)N3C[C@@H](F)C[C@H]3CO[C@H]3CC[C@H](C(=O)O)CC3)cc2Cl)c2ccc(F)cc21 [Example 73, trans-4-(1-((5-Chloro-2-fluoro-4-((6-fluoro-1-methyl-3-indolylcarbonyl)amino)phenyl)acetyl)-(4S)-fluoro-(2S)-pyrrolidinylmethoxy)cyclohexanecarboxylic acid] | 51 nM
Cn1cc(C(=O)Nc2cc(F)c(CC(=O)N3C[C@@H](F)C[C@H]3CO[C@H]3CC[C@H](C(=O)O)CC3)cc2Cl)c2c(F)cccc21 [Example 75, trans-4-(1-((5-Chloro-2-fluoro-4-((4-fluoro-1-methyl-3-indolylcarbonyl)amino)phenyl)acetyl)-(4S)-fluoro-(2S)-pyrrolidinylmethoxy)cyclohexanecarboxylic acid] | 21 nM
COc1cc(CC(=O)N2C[C@@H](F)C[C@H]2CO[C@H]2CC[C@H](C(=O)O)CC2)c(F)cc1NC(=O)c1cn(C)c2ccccc12 [Example 76, trans-4-((4S)-Fluoro-1-(2-fluoro-5-methoxy-4-((1-methyl-1H-3-indolylcarbonyl)amino)phenylacetyl)-(2S)-pyrrolidinylmethoxy)cyclohexanecarboxylic acid] | 1.6 nM
COc1cc(CC(=O)N2C[C@@H](F)C[C@H]2CO[C@H]2CC[C@H](C(=O)O)CC2)ccc1NC(=O)c1cc2ccccc2[nH]1 [Example 78, trans-4-(1-((4-((2-Indolylcarbonyl)amino)-3-methoxyphenyl)acetyl)-(4S)-fluoro-(2S)-pyrrolidinylmethoxy)cyclohexanecarboxylic acid] | 14 nM
O=C(Nc1cc(F)c(CC(=O)N2C[C@@H](F)C[C@H]2CO[C@H]2CC[C@H](C(=O)O)CC2)cc1Cl)c1nccc2ccccc12 [Example 81, trans-4-(1-((5-Chloro-2-fluoro-4-((1-isoquinolinylcarbonyl)amino)phenyl)acetyl)-(4S)-fluoro-(2S)-pyrrolidinylmethoxy)cyclohexanecarboxylic acid] | 25 nM
O=C(Nc1ccc(CC(=O)N2C[C@@H](F)C[C@H]2CO[C@H]2CC[C@H](C(=O)O)CC2)cc1Cl)c1nccc2ccc(F)cc12 [Example 82, trans-4-(1-((3-Chloro-4-((7-fluoro-1-isoquinolinylcarbonyl)amino)phenyl)acetyl)-(4S)-fluoro-(2S)-pyrrolidinylmethoxy)cyclohexanecarboxylic acid] | 18 nM
O=C(Nc1cc(F)c(CC(=O)N2C[C@@H](F)C[C@H]2CO[C@H]2CC[C@H](C(=O)O)CC2)cc1Cl)c1nsc2ccccc12 [Example 85, trans-4-(1-(5-Chloro-2-fluoro-(4-((3-benzo(d)isothiazolylcarbonyl)amino)phenyl)acetyl)-(4S)-fluoro-(2S)-pyrrolidinylmethoxy)cyclohexanecarboxylic acid] | 6.4 nM
Cn1cc(C(=O)Nc2cc(F)c(CC(=O)N3C[C@@H](F)C[C@H]3CN[C@H]3CC[C@H](C(=O)O)CC3)cc2Cl)c2ccccc21 [Example 107, trans-4-(N-(1-((5-Chloro-2-fluoro-4-((1-methyl-3-indolylcarbonyl)amino)phenyl)acetyl)-(4S)-fluoro-(2S)-pyrrolidinylmethyl)amino)cyclohexanecarboxylic acid] | 11 nM

The next lines start with the values.

Ki | SMILES
32 nM | O=C(Cc1ccc(Nc2nc3cccc(F)c3o2)c(Cl)c1)N1C[C@@H](F)C[C@H]1CO[C@H]1CC[C@H](C(=O)O)CC1 [Example 53, trans-4-(1-(3-Chloro-4-(2-(7-fluorobenzoxazolyl))aminophenylacetyl)-(4S)-fluoro-(2S)-pyrrolidinylmethoxy)cyclohexanecarboxylic acid]
5.6 nM | O=C(Cc1ccc(Nc2nc3cc(F)ccc3o2)c(Cl)c1)N1C[C@@H](F)C[C@H]1CO[C@H]1CC[C@H](C(=O)O)CC1 [Example 54, trans-4-(1-(3-Chloro-4-(2-(5-fluorobenzoxazolyl))aminophenylacetyl)-(4S)-fluoro-(2S)-pyrrolidinylmethoxy)cyclohexanecarboxylic acid]
2.1 nM | O=C(Cc1ccc(Nc2nc3ccccc3s2)c(Cl)c1)N1C[C@@H](F)C[C@H]1CO[C@H]1CC[C@H](C(=O)O)CC1 [Example 56, trans-4-(1-(4-(2-Benzothiazolyl)amino-3-chlorophenylacetyl)-(4S)-fluoro-(2S)-pyrrolidinylmethoxy)cyclohexanecarboxylic acid]
12 nM | O=C(Nc1ccc(CC(=O)N2C[C@@H](F)C[C@H]2CO[C@H]2CC[C@H](C(=O)O)CC2)cc1Cl)c1nccc2ccccc12 [Example 80, trans-4-(1-((3-Chloro-4-((1-isoquinolinylcarbonyl)amino)phenyl)acetyl)-(4S)-fluoro-(2S)-pyrrolidinylmethoxy)cyclohexanecarboxylic acid]
34 nM | O=C(Cc1ccc2nc(-c3cccc4ccccc34)oc2c1)N1C[C@@H](F)C[C@H]1CO[C@H]1CC[C@H](C(=O)O)CC1 [Example 95, trans-4-(1-(2-(1-Naphthyl)-6-benzoxazolylacetyl)-(4S)-fluoro-(2S)-pyrrolidinylmethoxy)cyclohexanecarboxylic acid]
20 nM | Cn1cc(-c2nc3ccc(CC(=O)N4C[C@@H](F)C[C@H]4CO[C@H]4CC[C@H](C(=O)O)CC4)cc3o2)c2cc(Cl)ccc21 [Example 96, trans-4-(1-((2-(5-Chloro-1-methyl-3-indolyl)-6-benzoxazolyl)acetyl)-(4S)-fluoro-(2S)-pyrrolidinylmethoxy)cyclohexanecarboxylic acid]
17 nM | Cn1cc(-c2nc3ccc(CC(=O)N4C[C@@H](F)C[C@H]4CO[C@H]4CC[C@H](C(=O)O)CC4)cc3o2)c2ccc(F)cc21 [Example 99, trans-4-(1-((2-(6-Fluoro-1-methyl-3-indolyl)-6-benzoxazolyl)acetyl)-(4S)-fluoro-(2S)-pyrrolidinylmethoxy)cyclohexanecarboxylic acid]
47 nM | O=C(Cc1ccc2nc(-c3nccc4ccccc34)oc2c1)N1C[C@@H](F)C[C@H]1CO[C@H]1CC[C@H](C(=O)O)CC1 [Example 102, trans-4-(1-(2-(1-Isoquinolinyl)-6-benzoxazolylacetyl)-(4S)-fluoro-(2S)-pyrrolidinylmethoxy)cyclohexanecarboxylic acid]
20 nM | O=C(Cc1ccc2nc(N3CCc4ccccc43)oc2c1)N1C[C@@H](F)C[C@H]1CO[C@H]1CC[C@H](C(=O)O)CC1 [Example 104]
42 nM | O=C(Cc1ccc2nc(N3CCc4ccccc43)oc2c1F)N1C[C@@H](F)C[C@H]1CO[C@H]1CC[C@H](C(=O)O)CC1 [Example 105, trans-4-(1-((7-fluoro-2-(1-indolinyl)-6-benzoxazolyl)acetyl)-(4S)-fluoro-(2S)-pyrrolidinylmethoxy)cyclohexanecarboxylic acid]
